Measurements taken from article PMC10892984, “Novel Antineoplastic Inducers of Mitochondrial Apoptosis in Human Cancer Cells” (Molecules, 2024).

What was measured:
HS 578T = details: 48 h
[1] = Homo sapiens, 48 h, read-out: LC50

## c1cc(CNC23CC4CC(CC(C4)C2)C3)cc(C[N+](Cc2cccc(CNC34CC5CC(CC(C5)C3)C4)c2)(Cc2cccc(CNC34CC5CC(CC(C5)C3)C4)c2)Cc2cccc(CNC34CC5CC(CC(C5)C3)C4)c2)c1 (stereo not drawn) [Compound 1, tetrakis{3-[(tricyclo[3.3.1.1^3,7]decan-1-ammonio)methyl]benzyl}ammonium pentachloride]
MOLT-4; Homo sapiens, MOLT-4, 48 h
  GI50: 1.32 µM
MOLT-4; Homo sapiens, MOLT-4, 48 h, read-out: LC50
  CC50: > 50 µM
MOLT-4; MOLT-4, leukemia, mutant p53, 48 h
  TGI: 4.09 µM
A549; A549, non-small-cell lung cancer, wild-type p53, 48 h
  TGI: 8.70 µM
A549; Homo sapiens, A549, 48 h
  GI50: 2.13 µM
A549; Homo sapiens, A549, 48 h, read-out: LC50
  CC50: 24.2 µM
NCI-H23; Homo sapiens, NCI-H23, 48 h
  GI50: 1.53 µM
NCI-H23; Homo sapiens, NCI-H23, 48 h, read-out: LC50
  CC50: 28.2 µM
NCI-H23; NCI-H23, non-small-cell lung cancer, mutant p53, 48 h
  TGI: 6.36 µM
NCI-H460; Homo sapiens, NCI-H460, 48 h
  GI50: 1.19 µM
NCI-H460; Homo sapiens, NCI-H460, 48 h, read-out: LC50
  CC50: 17.9 µM
NCI-H460; NCI-H460, non-small-cell lung cancer, wild-type p53, 48 h
  TGI: 2.71 µM
NCI-H522; Homo sapiens, NCI-H522, 48 h
  GI50: 0.731 µM
NCI-H522; Homo sapiens, NCI-H522, 48 h, read-out: LC50
  CC50: 3.3 µM
NCI-H522; NCI-H522, non-small-cell lung cancer, mutant p53, 48 h
  TGI: 1.55 µM
COLO 205; COLO 205, colon cancer, mutant p53, 48 h
  TGI: 3.13 µM
COLO 205; Homo sapiens, COLO 205, 48 h
  GI50: 1.09 µM
COLO 205; Homo sapiens, COLO 205, 48 h, read-out: LC50
  CC50: 24.8 µM
HCT-116; HCT-116, colon cancer, wild-type p53, 48 h
  TGI: 2.01 µM
HCT-116; Homo sapiens, HCT-116, 48 h
  GI50: 0.728 µM
HCT-116; Homo sapiens, HCT-116, 48 h, read-out: LC50
  CC50: 6.47 µM
SF-268; Homo sapiens, SF-268, 48 h
  GI50: 1.53 µM
SF-268; Homo sapiens, SF-268, 48 h, read-out: LC50
  CC50: 30.8 µM
SF-268; SF-268, CNS cancer (brain tumor), mutant p53, 48 h
  TGI: 5.41 µM
SF-295; Homo sapiens, SF-295, 48 h
  GI50: 3.05 µM
SF-295; Homo sapiens, SF-295, 48 h, read-out: LC50
  CC50: 28.2 µM
SF-295; SF-295, CNS cancer (brain tumor), mutant p53, 48 h
  TGI: 10.4 µM
SNB-19; Homo sapiens, SNB-19, 48 h
  GI50: 1.92 µM
SNB-19; Homo sapiens, SNB-19, 48 h, read-out: LC50
  CC50: 19.9 µM
SNB-19; SNB-19, CNS cancer (brain tumor), mutant p53, 48 h
  TGI: 7.27 µM
LOX IMVI; Homo sapiens, 48 h
  GI50: 0.505 µM
LOX IMVI; [1]
  CC50: 3.18 µM
LOX IMVI; melanoma, wild-type p53, 48 h
  TGI: 1.27 µM
M14; Homo sapiens, M14, 48 h
  GI50: 0.803 µM
M14; Homo sapiens, M14, 48 h, read-out: LC50
  CC50: 6.82 µM
M14; M14, melanoma, mutant p53, 48 h
  TGI: 2.08 µM
MDA-MB-435; Homo sapiens, MDA-MB-435, 48 h
  GI50: 0.825 µM
MDA-MB-435; Homo sapiens, MDA-MB-435, 48 h, read-out: LC50
  CC50: 6.5 µM
MDA-MB-435; MDA-MB-435, melanoma, mutant p53, 48 h
  TGI: 2.11 µM
SK-MEL-28; Homo sapiens, SK-MEL-28, 48 h
  GI50: 1.66 µM
SK-MEL-28; Homo sapiens, SK-MEL-28, 48 h, read-out: LC50
  CC50: 21.9 µM
SK-MEL-28; SK-MEL-28, melanoma, mutant p53, 48 h
  TGI: 7.91 µM
UACC-257; Homo sapiens, UACC-257, 48 h
  GI50: 3.08 µM
UACC-257; Homo sapiens, UACC-257, 48 h, read-out: LC50
  CC50: 29.4 µM
UACC-257; UACC-257, melanoma, wild-type p53, 48 h
  TGI: 10.8 µM
IGROV1; Homo sapiens, IGROV-1, 48 h
  GI50: 0.886 µM
IGROV1; Homo sapiens, IGROV-1, 48 h, read-out: LC50
  CC50: 8.65 µM
IGROV1; IGROV1, ovarian cancer, mutant p53, 48 h
  TGI: 2.34 µM
OVCAR-3; Homo sapiens, OVCAR-3, 48 h
  GI50: 1.04 µM
OVCAR-3; Homo sapiens, OVCAR-3, 48 h, read-out: LC50
  CC50: 9.97 µM
OVCAR-3; OVCAR-3, ovarian cancer, mutant p53, 48 h
  TGI: 2.82 µM
OVCAR-4; Homo sapiens, OVCAR-4, 48 h
  GI50: 1.16 µM
OVCAR-4; Homo sapiens, OVCAR-4, 48 h, read-out: LC50
  CC50: 18.4 µM
OVCAR-4; OVCAR-4, ovarian cancer, mutant p53, 48 h
  TGI: 5.45 µM
SK-OV-3; Homo sapiens, SK-OV-3, 48 h
  GI50: 5.11 µM
SK-OV-3; Homo sapiens, SK-OV-3, 48 h, read-out: LC50
  CC50: 25.5 µM
SK-OV-3; SK-OV-3, ovarian cancer, no p53 protein expressed, 48 h
  TGI: 11.4 µM
A498; A498, renal cancer, wild-type p53, 48 h
  TGI: 7.05 µM
A498; Homo sapiens, A498, 48 h
  GI50: 1.19 µM
A498; Homo sapiens, A498, 48 h, read-out: LC50
  CC50: 21.2 µM
ACHN; Homo sapiens, 48 h
  GI50: 0.874 µM
ACHN; [1]
  CC50: 5.55 µM
ACHN; renal cancer, wild-type p53, 48 h
  TGI: 2.14 µM
CAKI-1; CAKI-1, renal cancer, wild-type p53, 48 h
  TGI: 4.70 µM
CAKI-1; Homo sapiens, CAKI-1, 48 h
  GI50: 1.28 µM
CAKI-1; Homo sapiens, CAKI-1, 48 h, read-out: LC50
  CC50: 15.4 µM
SN12C; Homo sapiens, 48 h
  GI50: 1.41 µM
SN12C; [1]
  CC50: 15.8 µM
SN12C; renal cancer, mutant p53, 48 h
  TGI: 4.43 µM
PC-3; Homo sapiens, PC-3, 48 h
  GI50: 1.4 µM
PC-3; Homo sapiens, PC-3, 48 h, read-out: LC50
  CC50: 21.4 µM
PC-3; PC-3, prostate cancer, mutant p53 (null p53 protein), 48 h
  TGI: 5.17 µM
MCF7; Homo sapiens, MCF7, 48 h
  GI50: 1.07 µM
MCF7; Homo sapiens, MCF7, 48 h, read-out: LC50
  CC50: 45.8 µM
MCF7; MCF7, breast cancer, wild-type p53, 48 h
  TGI: 6.19 µM
HS 578T; HS 578T, breast cancer, mutant p53
  TGI: 11.8 µM
HS 578T; Homo sapiens, Hs-578T
  GI50: 1.92 µM
HS 578T; Homo sapiens, Hs-578T, read-out: LC50
  CC50: > 50 µM
BT-549; BT-549, breast cancer, mutant p53, 48 h
  TGI: 2.77 µM
BT-549; Homo sapiens, BT-549, 48 h
  GI50: 1.02 µM
BT-549; Homo sapiens, BT-549, 48 h, read-out: LC50
  CC50: 10.2 µM
MDA-MB-468; Homo sapiens, MDA-MB-468, 48 h
  GI50: 0.797 µM
MDA-MB-468; Homo sapiens, MDA-MB-468, 48 h, read-out: LC50
  CC50: 3.55 µM
MDA-MB-468; MDA-MB-468, breast cancer, mutant p53, 48 h
  TGI: 1.68 µM
